In PubChem BioAssay (NCI):
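Five concentrations, 48 hours, 96-well plates. The concentration for 50% growth inhibition is given as GI50. TGI denotes the concentration required for complete inhibition of growth.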

What was measured:
Experiment in all cases: NCI-60 cell line screen, 48 h
K-562 leukemia = tested on: K-562 leukemia
HT29 colon = tested on: HT29 colon
NCI-H23 lung = tested on: NCI-H23 lung
EKVX NSCLC = tested on: EKVX NSCLC
RXF 393 renal = tested on: RXF 393 renal
SF-268 CNS = tested on: SF-268 CNS
SN12C renal = tested on: SN12C renal
KM12 colon = tested on: KM12 colon
LOX IMVI melanoma = tested on: LOX IMVI melanoma
HOP-62 NSCLC = tested on: HOP-62 NSCLC
SW-620 colon = tested on: SW-620 colon
SK-MEL-28 melanoma = tested on: SK-MEL-28 melanoma
M14 melanoma = tested on: M14 melanoma
T-47D breast = tested on: T-47D breast
786-0 renal = tested on: 786-0 renal
HCT-15 colon = tested on: HCT-15 colon
COLO 205 colon = tested on: COLO 205 colon
HS 578T breast = tested on: HS 578T breast
A498 renal = tested on: A498 renal
MDA-MB-435 = tested on: MDA-MB-435
UACC-257 melanoma = tested on: UACC-257 melanoma
OVCAR-8 ovarian = tested on: OVCAR-8 ovarian
SNB-19 CNS = tested on: SNB-19 CNS
A549 NSCLC = tested on: A549 NSCLC
SF-539 CNS = tested on: SF-539 CNS
NCI-H522 lung = tested on: NCI-H522 lung
BT-549 breast = tested on: BT-549 breast
OVCAR-3 ovarian = tested on: OVCAR-3 ovarian
MOLT-4 leukemia = tested on: MOLT-4 leukemia
RPMI-8226 leukemia = tested on: RPMI-8226 leukemia
NCI/ADR-RES ovarian = tested on: NCI/ADR-RES ovarian
DU-145 prostate = tested on: DU-145 prostate
SR leukemia = tested on: SR leukemia
SK-MEL-5 melanoma = tested on: SK-MEL-5 melanoma
U251 CNS = tested on: U251 CNS
NCI-H460 lung = tested on: NCI-H460 lung
HOP-92 NSCLC = tested on: HOP-92 NSCLC
MDA-MB-468 breast = tested on: MDA-MB-468 breast
NCI-H226 lung = tested on: NCI-H226 lung
CCRF-CEM leukemia = tested on: CCRF-CEM leukemia
IGROV1 ovarian = tested on: IGROV1 ovarian
MCF7 breast = tested on: MCF7 breast
CAKI-1 renal = tested on: CAKI-1 renal
UACC-62 melanoma = tested on: UACC-62 melanoma
OVCAR-5 ovarian = tested on: OVCAR-5 ovarian
OVCAR-4 ovarian = tested on: OVCAR-4 ovarian
HL-60(TB) leukemia = tested on: HL-60(TB) leukemia
ACHN renal = tested on: ACHN renal
TK-10 renal = tested on: TK-10 renal
HCT-116 colon = tested on: HCT-116 colon
MALME-3M melanoma = tested on: MALME-3M melanoma
SK-OV-3 ovarian = tested on: SK-OV-3 ovarian
PC-3 prostate = tested on: PC-3 prostate
HCC-2998 colon = tested on: HCC-2998 colon
SF-295 CNS = tested on: SF-295 CNS

O=C1Nc2ccc(F)cc2/C1=C/c1cccc(OCc2ccccn2)c1
GI50 (K-562 leukemia): 17.5 µM | TGI (K-562 leukemia): 57.3 µM | GI50 (HT29 colon): 17.5 µM | TGI (HT29 colon): 34.7 µM | GI50 (NCI-H23 lung): 15 µM | TGI (NCI-H23 lung): 28.8 µM | GI50 (EKVX NSCLC): 13 µM | TGI (EKVX NSCLC): 26.9 µM | GI50 (RXF 393 renal): 13.3 µM | TGI (RXF 393 renal): 26.4 µM | GI50 (SF-268 CNS): 17.1 µM | TGI (SF-268 CNS): 39.3 µM | GI50 (SN12C renal): 16.8 µM | TGI (SN12C renal): 34.4 µM | GI50 (KM12 colon): 19 µM | TGI (KM12 colon): 37.3 µM | GI50 (LOX IMVI melanoma): 14.9 µM | TGI (LOX IMVI melanoma): 29 µM | GI50 (HOP-62 NSCLC): 14.4 µM | TGI (HOP-62 NSCLC): 30.8 µM | GI50 (SW-620 colon): 17.2 µM | TGI (SW-620 colon): 36 µM | GI50 (SK-MEL-28 melanoma): 18.4 µM | TGI (SK-MEL-28 melanoma): 37.1 µM | GI50 (M14 melanoma): 15.7 µM | TGI (M14 melanoma): 31.5 µM | GI50 (T-47D breast): 15 µM | TGI (T-47D breast): 34 µM | GI50 (786-0 renal): 15 µM | TGI (786-0 renal): 29.7 µM | GI50 (HCT-15 colon): 16.5 µM | TGI (HCT-15 colon): 34.4 µM | GI50 (COLO 205 colon): 16.3 µM | TGI (COLO 205 colon): 31 µM | GI50 (HS 578T breast): 17.6 µM | TGI (HS 578T breast): 63.3 µM | GI50 (A498 renal): 54.3 µM | TGI (A498 renal): > 100 µM | GI50 (MDA-MB-435): 18.5 µM | TGI (MDA-MB-435): 36.6 µM | GI50 (UACC-257 melanoma): 14.4 µM | TGI (UACC-257 melanoma): 30.1 µM | GI50 (OVCAR-8 ovarian): 16.1 µM | TGI (OVCAR-8 ovarian): 31.7 µM | GI50 (SNB-19 CNS): 17.2 µM | TGI (SNB-19 CNS): 33.2 µM | GI50 (A549 NSCLC): 18.9 µM | TGI (A549 NSCLC): 59.9 µM | GI50 (SF-539 CNS): 16.3 µM | TGI (SF-539 CNS): 30.4 µM | GI50 (NCI-H522 lung): 15.9 µM | TGI (NCI-H522 lung): 33 µM | GI50 (BT-549 breast): 15 µM | TGI (BT-549 breast): 30.1 µM | GI50 (OVCAR-3 ovarian): 15.2 µM | TGI (OVCAR-3 ovarian): 32.4 µM | GI50 (MOLT-4 leukemia): 17.5 µM | TGI (MOLT-4 leukemia): 40 µM | GI50 (RPMI-8226 leukemia): 17.3 µM | TGI (RPMI-8226 leukemia): 48 µM | GI50 (NCI/ADR-RES ovarian): 16.8 µM | TGI (NCI/ADR-RES ovarian): 39.3 µM | GI50 (DU-145 prostate): 18.2 µM | TGI (DU-145 prostate): 33.5 µM | GI50 (SR leukemia): 16.4 µM | TGI (SR leukemia): 42.6 µM | GI50 (SK-MEL-5 melanoma): 16.6 µM | TGI (SK-MEL-5 melanoma): 30.5 µM | GI50 (U251 CNS): 15.2 µM | TGI (U251 CNS): 33.3 µM | GI50 (NCI-H460 lung): 19.8 µM | TGI (NCI-H460 lung): 44.4 µM | GI50 (HOP-92 NSCLC): 11.3 µM | TGI (HOP-92 NSCLC): 36.3 µM | GI50 (MDA-MB-468 breast): 14.2 µM | TGI (MDA-MB-468 breast): 29.3 µM | GI50 (NCI-H226 lung): 15 µM | TGI (NCI-H226 lung): 29.9 µM | GI50 (CCRF-CEM leukemia): 25.9 µM | TGI (CCRF-CEM leukemia): 71.8 µM | GI50 (IGROV1 ovarian): 17 µM | TGI (IGROV1 ovarian): 36.2 µM | GI50 (MCF7 breast): 12.1 µM | TGI (MCF7 breast): 26.4 µM | GI50 (CAKI-1 renal): 19.6 µM | TGI (CAKI-1 renal): 55.5 µM | GI50 (UACC-62 melanoma): 13.6 µM | TGI (UACC-62 melanoma): 27.7 µM | GI50 (OVCAR-5 ovarian): 16 µM | TGI (OVCAR-5 ovarian): 31 µM | GI50 (OVCAR-4 ovarian): 22 µM | TGI (OVCAR-4 ovarian): 63.3 µM | GI50 (HL-60(TB) leukemia): 16.4 µM | TGI (HL-60(TB) leukemia): 39.3 µM | GI50 (ACHN renal): 16.4 µM | TGI (ACHN renal): 33.5 µM | GI50 (TK-10 renal): 18.1 µM | TGI (TK-10 renal): 32.5 µM | GI50 (HCT-116 colon): 13.7 µM | TGI (HCT-116 colon): 28.5 µM | GI50 (MALME-3M melanoma): 17.5 µM | TGI (MALME-3M melanoma): 40.1 µM | GI50 (SK-OV-3 ovarian): 18.6 µM | TGI (SK-OV-3 ovarian): 50 µM | GI50 (PC-3 prostate): 18.7 µM | TGI (PC-3 prostate): 48.7 µM | GI50 (HCC-2998 colon): 16.3 µM | TGI (HCC-2998 colon): 30.3 µM | GI50 (SF-295 CNS): 16 µM | TGI (SF-295 CNS): 30.3 µM
